Laboratory results as given in paper PMC6016738 (European journal of medicinal chemistry, 2018).
One block for each compound: values may come before it.

How the values were obtained:
E. coli DNA gyrase = E. coli DNA gyrase (Escherichia coli, UniProt P0AES6); assay: E. coli DNA gyrase supercoiling assay
E. faecalis ATCC 29212 = assay: Antibacterial activity; assay type: cell-based, Enterococcus faecalis; details: for inhibition at 50 µM: Enterococcus faecalis, ATCC29212, read-out: growth inhibition of E. faecalis
E. coli topoisomerase IV = E. coli topoisomerase IV (Escherichia coli, UniProt P20083); assay: E. coli topoisomerase IV inhibition assay; details: for IC50: IC50 E. coli topo IV; for remaining activity at 1 µM: read-out: RA (residual activity) E. coli topo IV
Sequence of E. coli topoisomerase IV (P20083 whole entry): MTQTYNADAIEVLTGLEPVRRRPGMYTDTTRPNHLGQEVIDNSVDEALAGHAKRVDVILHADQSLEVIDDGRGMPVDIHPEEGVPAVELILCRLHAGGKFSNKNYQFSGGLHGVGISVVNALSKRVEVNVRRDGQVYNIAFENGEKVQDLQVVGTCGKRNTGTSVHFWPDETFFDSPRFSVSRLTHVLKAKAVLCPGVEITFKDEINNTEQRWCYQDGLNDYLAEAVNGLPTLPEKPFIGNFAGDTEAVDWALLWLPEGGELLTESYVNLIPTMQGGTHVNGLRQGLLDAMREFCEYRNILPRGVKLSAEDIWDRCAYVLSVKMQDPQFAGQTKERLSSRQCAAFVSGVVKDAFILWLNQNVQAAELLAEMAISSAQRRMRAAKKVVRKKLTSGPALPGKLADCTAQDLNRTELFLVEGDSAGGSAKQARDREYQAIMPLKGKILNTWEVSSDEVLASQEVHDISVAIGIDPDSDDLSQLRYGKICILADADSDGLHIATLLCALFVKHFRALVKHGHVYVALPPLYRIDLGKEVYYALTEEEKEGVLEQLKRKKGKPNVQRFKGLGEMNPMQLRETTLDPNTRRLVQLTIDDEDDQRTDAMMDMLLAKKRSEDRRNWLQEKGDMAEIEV
Sequence of E. coli topoisomerase IV (P0AFI2 whole entry partner): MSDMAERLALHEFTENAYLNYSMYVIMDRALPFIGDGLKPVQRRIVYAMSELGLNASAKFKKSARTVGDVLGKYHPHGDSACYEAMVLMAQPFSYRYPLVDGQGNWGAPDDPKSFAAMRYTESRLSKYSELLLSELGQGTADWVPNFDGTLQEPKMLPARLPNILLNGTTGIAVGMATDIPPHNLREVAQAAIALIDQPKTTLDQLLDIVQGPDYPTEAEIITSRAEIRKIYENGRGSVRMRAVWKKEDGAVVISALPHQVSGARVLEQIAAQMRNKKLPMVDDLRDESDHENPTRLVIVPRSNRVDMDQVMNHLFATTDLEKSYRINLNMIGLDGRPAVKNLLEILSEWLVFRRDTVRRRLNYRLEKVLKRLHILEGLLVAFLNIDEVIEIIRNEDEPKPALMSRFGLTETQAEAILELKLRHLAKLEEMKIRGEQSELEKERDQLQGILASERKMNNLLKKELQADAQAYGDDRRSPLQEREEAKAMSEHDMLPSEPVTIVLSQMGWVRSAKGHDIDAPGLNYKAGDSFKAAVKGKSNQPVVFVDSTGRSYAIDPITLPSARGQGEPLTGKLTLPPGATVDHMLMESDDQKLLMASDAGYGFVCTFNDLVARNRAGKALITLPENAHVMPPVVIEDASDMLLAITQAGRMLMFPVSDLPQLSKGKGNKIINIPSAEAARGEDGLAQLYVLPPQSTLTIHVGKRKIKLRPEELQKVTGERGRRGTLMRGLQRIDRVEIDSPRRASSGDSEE

S. aureus ATCC 25923 = assay: Antibacterial activity; assay type: cell-based; details: Staphylococcus aureus, ATCC25923, read-out: growth inhibition of S. aureus
E. coli JW5503 ΔtolC = assay: Antibacterial activity; assay type: cell-based, Escherichia coli; details: inhibitor concentration 50 μM
[1] = Growth inhibition of the bacterial panel at 50 μM; assay type: cell-based; details: read-out: growth inhibition of bacteria (all tested strains, Table 1S)
E. coli (MG1655) = assay: MIC broth micro-dilution; assay type: cell-based, Escherichia coli
E. coli (BW 25113) = assay: MIC broth micro-dilution; assay type: cell-based, Escherichia coli
E. coli (ATCC 25922) = assay: MIC broth micro-dilution; assay type: cell-based, Escherichia coli
HepG2 cells = details: read-out: IC50 HepG2; literature value; cited from earlier work
HUVEC cells = details: read-out: IC50 HUVEC; literature value; cited from earlier work

RA (residual activity) E. coli gyrase (E. coli DNA gyrase; residual activity of the enzyme at 1 μM of the compound): 100%
Compound: 4,5-Dibromo-N-(2-isopropoxy-4-((pyridin-2-ylmethyl)carbamoyl)phenyl)-1H-pyrrole-2-carboxamide [Compound 15a]

Compound: CC(C)Oc1cc(C(=O)N[C@H](C(=O)O)C(C)C)ccc1NC(=O)c1cc(Br)c(Br)[nH]1 [Compound 8a, (4-(4,5-Dibromo-1H-pyrrole-2-carboxamido)-3-isopropoxybenzoyl)-L-valine]
inhibition at 50 µM (E. faecalis ATCC 29212): > 80%

Compound: Cc1[nH]c(C(=O)Nc2ccc(C(=O)N[C@@H](Cc3ccccc3)C(=O)O)cc2OC(C)C)c(Cl)c1Cl [Compound 8d]
inhibition at 50 µM (E. faecalis ATCC 29212): > 80%

Compound: Cc1[nH]c(C(=O)Nc2ccc(C(=O)N[C@@H](C)C(=O)O)cc2OC(C)C)c(Cl)c1Cl [Compound 8e]
inhibition at 50 µM (E. faecalis ATCC 29212): > 80%
IC50 (E. coli topoisomerase IV): < 1000 nM

Compound: Cc1[nH]c(C(=O)Nc2ccc(C(=O)N[C@H](C)C(=O)O)cc2OC(C)C)c(Cl)c1Cl [Compound 8f]
inhibition at 50 µM (E. faecalis ATCC 29212): > 80%

remaining activity at 1 µM (E. coli topoisomerase IV): 100%
Compound: Cc1[nH]c(C(=O)Nc2ccc(C(=O)N[C@@H](C)C(=O)O)cc2OCCNC(=O)OC(C)(C)C)c(Cl)c1Cl [Compound 8i]

Compound: COC(=O)[C@H](Cc1ccccc1)NC(=O)c1ccc(NC(=O)c2cc(Br)c(Br)[nH]2)c(OCCN)c1 [Compound 9a, (S)-2-(2-(4,5-Dibromo-1H-pyrrole-2-carboxamido)-5-((1-methoxy-1-oxo-3-phenylpropan-2-yl)carbamoyl)phenoxy)ethan-1-aminium chloride]
inhibition at 50 µM (S. aureus ATCC 25923): > 80%
inhibition at 50 µM (E. faecalis ATCC 29212): > 80%

Compound: COC(=O)[C@H](C)NC(=O)c1ccc(NC(=O)c2[nH]c(C)c(Cl)c2Cl)c(OCCN)c1.Cl [Compound 9b]
inhibition at 50 µM (S. aureus ATCC 25923): > 80%
growth inhibition of E. coli JW5503 ΔtolC (E. coli JW5503 ΔtolC): completely suppressed
inhibition at 50 µM (E. faecalis ATCC 29212): > 80%

Compound: NCCOc1cc(C(=O)NCC(=O)O)ccc1NC(=O)c1cc(Br)c(Br)[nH]1 [Compound 9c]
inhibition at 50 µM [1]: < 36%

Compound: NCCOc1cc(C(=O)N[C@@H](Cc2ccccc2)C(=O)O)ccc1NC(=O)c1cc(Br)c(Br)[nH]1 [Compound 9d]
inhibition at 50 µM [1]: < 36%

Compound: Cc1[nH]c(C(=O)Nc2ccc(C(=O)N[C@@H](C)C(=O)O)cc2OCCN)c(Cl)c1Cl [Compound 9e]
IC50 (E. coli topoisomerase IV): < 1000 nM
inhibition at 50 µM [1]: < 36%

Compound: Cc1[nH]c(C(=O)Nc2ccc(C(=O)N[C@@H](C)C(=O)NN)cc2OC(C)C)c(Cl)c1Cl [Compound 10a, (S)-3,4-Dichloro-N-(4-((1-hydrazineyl-1-oxopropan-2-yl)carbamoyl)-2-isopropoxyphenyl)-5-methyl-1H-pyrrole-2-carboxamide]
inhibition at 50 µM (E. faecalis ATCC 29212): > 80%
remaining activity at 1 µM (E. coli topoisomerase IV): 100%

Compound: Cc1[nH]c(C(=O)Nc2ccc(C(=O)N[C@@H](C)c3n[nH]c(=O)o3)cc2OC(C)C)c(Cl)c1Cl [Compound 11a, (S)-3,4-Dichloro-N-(2-isopropoxy-4-((1-(5-oxo-4,5-dihydro-1,3,4-oxadiazol-2-yl)ethyl)carbamoyl)phenyl)-5-methyl-1H-pyrrole-2-carboxamide]
inhibition at 50 µM (S. aureus ATCC 25923): > 80%
MIC (E. coli (MG1655); Escherichia coli, MG1655, read-out: MIC E. coli (MG1655)): > 50 µM
MIC E. coli (MG1655) (E. coli (MG1655); without PAβN): no bioactivity
inhibition at 50 µM (E. faecalis ATCC 29212): > 80%
MIC (E. coli (BW 25113); Escherichia coli, read-out: MIC E. coli (BW 25113)): > 50 µM
MIC E. coli (BW 25113) (E. coli (BW 25113); without PAβN): no bioactivity
MIC (E. coli (ATCC 25922); Escherichia coli, ATCC25922, read-out: MIC E. coli (ATCC 25922)): > 50 µM
MIC E. coli (ATCC 25922) (E. coli (ATCC 25922); without PAβN): no bioactivity

Compound: Cc1[nH]c(C(=O)Nc2ccc(C(=O)N[C@@H](C)c3n[nH]c(=O)o3)cc2OCCNC(=O)OC(C)(C)C)c(Cl)c1Cl [Compound 11b]
inhibition at 50 µM (E. faecalis ATCC 29212): > 80%

Compound: Cc1[nH]c(C(=O)Nc2ccc(C(=O)N[C@@H](C)c3n[nH]c(=O)o3)cc2OCCN)c(Cl)c1Cl [Compound 12, (S)-2-(2-(3,4-Dichloro-5-methyl-1H-pyrrole-2-carboxamido)-5-((1-(5-oxo-4,5-dihydro-1,3,4-oxadiazol-2-yl)ethyl)carbamoyl)phenoxy)ethan-1-aminium chloride]
growth inhibition of E. faecalis (E. faecalis ATCC 29212; inhibitor concentration 50 μM): no growth inhibition
IC50 (E. coli topoisomerase IV): < 1000 nM

IC50 (E. coli topoisomerase IV): 42000 ± 11000 nM
fold more active on E. coli gyrase than isopropoxy analogue 23c (E. coli DNA gyrase; ratio of IC50 values): 4 fold
Compound: O=C(O)CNC(=O)c1ccc(NC(=O)c2cc(Br)c(Br)[nH]2)cc1OCc1ccccc1 [Compound 23a, (2-(Benzyloxy)-4-(4,5-dibromo-1H-pyrrole-2-carboxamido)benzoyl)glycine]

remaining activity at 1 µM (E. coli topoisomerase IV): 100%
Compound: CC(C)Oc1cc(NC(=O)c2cc(Br)c(Br)[nH]2)ccc1C(=O)NCC(=O)O [Compound 23c]

remaining activity at 1 µM (E. coli topoisomerase IV): 100%
Compound: Cc1[nH]c(C(=O)Nc2ccc(C(=O)NCC(=O)O)c(OC(C)C)c2)c(Cl)c1Cl [Compound 23d]

Compound: COc1cc([C@@H]2c3cc4c(cc3[C@@H](O[C@@H]3O[C@@H]5CO[C@@H](C)O[C@H]5[C@H](O)[C@H]3O)[C@H]3COC(=O)[C@H]23)OCO4)cc(OC)c1O [Etoposide]
IC50 (HepG2 cells): 30.2 µM
IC50 (HUVEC cells): 1250 nM
